Active and inactive are the calls of the source.

In assay [1] the target is Adenylate kinase 2, mitochondrial (Homo sapiens, UniProt P54819).
The target in assay [2] is Calcium/calmodulin-dependent protein kinase kinase 2 (Homo sapiens, UniProt Q96RR4).
Assay [3] addresses T1, Cyclin-G-associated kinase (Homo sapiens, UniProt O14976).
T1 sequence (O14976 whole entry): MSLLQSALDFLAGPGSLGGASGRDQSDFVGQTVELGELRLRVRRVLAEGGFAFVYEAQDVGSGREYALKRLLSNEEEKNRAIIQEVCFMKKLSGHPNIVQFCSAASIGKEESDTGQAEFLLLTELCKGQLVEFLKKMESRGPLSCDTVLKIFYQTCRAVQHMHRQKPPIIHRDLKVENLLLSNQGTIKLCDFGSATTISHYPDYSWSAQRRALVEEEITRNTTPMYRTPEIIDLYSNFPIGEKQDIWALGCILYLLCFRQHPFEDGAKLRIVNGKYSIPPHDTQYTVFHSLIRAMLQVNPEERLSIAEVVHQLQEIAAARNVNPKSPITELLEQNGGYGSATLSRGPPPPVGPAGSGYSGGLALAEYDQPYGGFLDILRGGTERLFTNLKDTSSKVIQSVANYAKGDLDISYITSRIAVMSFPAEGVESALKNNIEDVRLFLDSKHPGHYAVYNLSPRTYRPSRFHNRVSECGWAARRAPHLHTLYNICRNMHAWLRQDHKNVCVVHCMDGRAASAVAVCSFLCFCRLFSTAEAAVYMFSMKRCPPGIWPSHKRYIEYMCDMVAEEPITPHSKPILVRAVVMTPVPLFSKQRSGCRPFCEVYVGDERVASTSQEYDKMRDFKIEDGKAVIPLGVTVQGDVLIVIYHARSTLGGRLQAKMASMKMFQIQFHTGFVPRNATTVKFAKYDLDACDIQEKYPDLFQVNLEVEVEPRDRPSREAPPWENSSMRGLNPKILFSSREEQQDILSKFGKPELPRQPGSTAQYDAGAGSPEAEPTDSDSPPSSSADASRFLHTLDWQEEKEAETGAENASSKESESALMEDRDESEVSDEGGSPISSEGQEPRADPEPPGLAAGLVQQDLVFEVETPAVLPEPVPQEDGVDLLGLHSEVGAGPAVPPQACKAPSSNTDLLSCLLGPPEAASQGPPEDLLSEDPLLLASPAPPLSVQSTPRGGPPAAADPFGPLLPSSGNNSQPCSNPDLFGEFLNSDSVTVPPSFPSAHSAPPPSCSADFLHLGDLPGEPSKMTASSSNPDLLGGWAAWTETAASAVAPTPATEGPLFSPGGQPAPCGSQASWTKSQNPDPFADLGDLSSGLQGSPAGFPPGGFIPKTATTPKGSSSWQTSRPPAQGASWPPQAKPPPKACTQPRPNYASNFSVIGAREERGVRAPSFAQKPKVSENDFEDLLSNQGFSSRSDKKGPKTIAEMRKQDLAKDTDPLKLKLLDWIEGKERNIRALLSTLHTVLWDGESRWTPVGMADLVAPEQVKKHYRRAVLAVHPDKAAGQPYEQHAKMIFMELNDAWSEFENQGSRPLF

The target in assay [4] is T2, Glycine--tRNA ligase (Homo sapiens, UniProt P41250).
T2 sequence (P41250 whole entry): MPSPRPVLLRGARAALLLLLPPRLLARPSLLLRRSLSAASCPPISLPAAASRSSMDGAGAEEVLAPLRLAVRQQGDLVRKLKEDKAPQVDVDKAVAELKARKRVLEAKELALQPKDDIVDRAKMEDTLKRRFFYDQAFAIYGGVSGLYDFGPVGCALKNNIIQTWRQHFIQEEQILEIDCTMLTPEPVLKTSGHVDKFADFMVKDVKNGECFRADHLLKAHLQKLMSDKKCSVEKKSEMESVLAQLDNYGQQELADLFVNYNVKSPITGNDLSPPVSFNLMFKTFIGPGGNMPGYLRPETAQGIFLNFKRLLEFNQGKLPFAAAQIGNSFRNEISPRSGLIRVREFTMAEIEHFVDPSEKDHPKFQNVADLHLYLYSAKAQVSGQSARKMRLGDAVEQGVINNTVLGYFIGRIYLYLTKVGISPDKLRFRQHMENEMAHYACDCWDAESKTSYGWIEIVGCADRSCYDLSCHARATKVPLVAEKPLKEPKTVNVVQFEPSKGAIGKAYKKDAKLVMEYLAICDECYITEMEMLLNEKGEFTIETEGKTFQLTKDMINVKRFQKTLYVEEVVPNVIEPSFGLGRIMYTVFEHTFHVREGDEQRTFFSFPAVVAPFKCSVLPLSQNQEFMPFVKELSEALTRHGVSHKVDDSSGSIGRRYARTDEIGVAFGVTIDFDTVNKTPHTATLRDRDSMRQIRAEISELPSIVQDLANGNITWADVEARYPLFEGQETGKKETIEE

Assay [5] has as its target cAMP-dependent protein kinase catalytic subunit gamma (Homo sapiens, UniProt P22612).
Assay [6] concerns the target T3, STE20-related kinase adapter protein alpha (Homo sapiens, UniProt Q7RTN6).
T3 sequence (Q7RTN6 whole entry): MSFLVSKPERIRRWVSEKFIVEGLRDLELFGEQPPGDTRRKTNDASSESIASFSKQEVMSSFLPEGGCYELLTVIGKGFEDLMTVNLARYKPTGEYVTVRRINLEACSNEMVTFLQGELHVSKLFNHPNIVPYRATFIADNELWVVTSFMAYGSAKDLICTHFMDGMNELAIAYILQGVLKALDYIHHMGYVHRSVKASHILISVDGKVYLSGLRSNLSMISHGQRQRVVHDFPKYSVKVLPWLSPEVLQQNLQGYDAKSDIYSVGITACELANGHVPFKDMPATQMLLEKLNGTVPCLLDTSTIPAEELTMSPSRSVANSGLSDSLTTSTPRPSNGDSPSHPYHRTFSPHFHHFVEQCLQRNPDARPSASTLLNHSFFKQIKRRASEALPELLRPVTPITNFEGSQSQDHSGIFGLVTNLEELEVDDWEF

In assay [7] the target is Serine/threonine-protein kinase/endoribonuclease IRE1 (Homo sapiens, UniProt O75460).
Assay [8] deals with Ribosomal protein S6 kinase alpha-3 (Homo sapiens, UniProt P51812).
In assay [9] the target is Serine/threonine-protein kinase 16 (Homo sapiens, UniProt O75716).
Note: in the data inactive means no Kd found up to 30 µM.

Chain of cAMP-dependent protein kinase catalytic subunit gamma (P22612 whole entry): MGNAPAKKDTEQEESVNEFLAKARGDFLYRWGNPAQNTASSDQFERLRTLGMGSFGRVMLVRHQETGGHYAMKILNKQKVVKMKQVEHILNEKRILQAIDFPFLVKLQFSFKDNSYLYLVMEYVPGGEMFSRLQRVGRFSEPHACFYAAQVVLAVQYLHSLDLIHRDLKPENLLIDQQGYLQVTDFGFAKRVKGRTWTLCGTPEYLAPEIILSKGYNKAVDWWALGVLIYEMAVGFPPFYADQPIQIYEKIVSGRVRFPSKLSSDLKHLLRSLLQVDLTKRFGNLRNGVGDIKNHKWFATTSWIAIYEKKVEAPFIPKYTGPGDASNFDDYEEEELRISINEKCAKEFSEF
Chain of Serine/threonine-protein kinase 16 (O75716 whole entry): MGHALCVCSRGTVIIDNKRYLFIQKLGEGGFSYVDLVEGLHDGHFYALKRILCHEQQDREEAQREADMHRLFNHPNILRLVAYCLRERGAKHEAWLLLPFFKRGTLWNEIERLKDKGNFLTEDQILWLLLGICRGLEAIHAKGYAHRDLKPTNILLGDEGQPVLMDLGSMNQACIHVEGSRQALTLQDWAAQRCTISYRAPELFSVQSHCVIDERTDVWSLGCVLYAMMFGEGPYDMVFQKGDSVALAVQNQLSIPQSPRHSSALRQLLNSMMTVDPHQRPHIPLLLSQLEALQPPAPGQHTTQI
Chain of Calcium/calmodulin-dependent protein kinase kinase 2 (Q96RR4 whole entry): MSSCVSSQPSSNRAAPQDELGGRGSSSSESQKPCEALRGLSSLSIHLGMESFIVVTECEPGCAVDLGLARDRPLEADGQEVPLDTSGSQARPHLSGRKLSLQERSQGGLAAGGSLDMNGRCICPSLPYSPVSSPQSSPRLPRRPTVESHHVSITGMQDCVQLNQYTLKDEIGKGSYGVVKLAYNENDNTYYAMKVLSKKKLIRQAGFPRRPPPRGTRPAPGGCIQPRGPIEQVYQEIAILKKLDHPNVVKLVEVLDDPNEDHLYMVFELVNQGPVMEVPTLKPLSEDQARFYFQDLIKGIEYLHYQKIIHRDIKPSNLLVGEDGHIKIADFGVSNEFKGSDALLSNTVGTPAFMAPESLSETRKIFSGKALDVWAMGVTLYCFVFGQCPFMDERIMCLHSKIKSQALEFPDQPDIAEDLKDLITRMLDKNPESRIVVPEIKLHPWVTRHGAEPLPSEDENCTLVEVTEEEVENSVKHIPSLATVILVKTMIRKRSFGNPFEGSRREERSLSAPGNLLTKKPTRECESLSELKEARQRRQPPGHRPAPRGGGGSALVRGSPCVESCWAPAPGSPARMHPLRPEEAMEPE
Chain of Serine/threonine-protein kinase/endoribonuclease IRE1 (O75460 whole entry): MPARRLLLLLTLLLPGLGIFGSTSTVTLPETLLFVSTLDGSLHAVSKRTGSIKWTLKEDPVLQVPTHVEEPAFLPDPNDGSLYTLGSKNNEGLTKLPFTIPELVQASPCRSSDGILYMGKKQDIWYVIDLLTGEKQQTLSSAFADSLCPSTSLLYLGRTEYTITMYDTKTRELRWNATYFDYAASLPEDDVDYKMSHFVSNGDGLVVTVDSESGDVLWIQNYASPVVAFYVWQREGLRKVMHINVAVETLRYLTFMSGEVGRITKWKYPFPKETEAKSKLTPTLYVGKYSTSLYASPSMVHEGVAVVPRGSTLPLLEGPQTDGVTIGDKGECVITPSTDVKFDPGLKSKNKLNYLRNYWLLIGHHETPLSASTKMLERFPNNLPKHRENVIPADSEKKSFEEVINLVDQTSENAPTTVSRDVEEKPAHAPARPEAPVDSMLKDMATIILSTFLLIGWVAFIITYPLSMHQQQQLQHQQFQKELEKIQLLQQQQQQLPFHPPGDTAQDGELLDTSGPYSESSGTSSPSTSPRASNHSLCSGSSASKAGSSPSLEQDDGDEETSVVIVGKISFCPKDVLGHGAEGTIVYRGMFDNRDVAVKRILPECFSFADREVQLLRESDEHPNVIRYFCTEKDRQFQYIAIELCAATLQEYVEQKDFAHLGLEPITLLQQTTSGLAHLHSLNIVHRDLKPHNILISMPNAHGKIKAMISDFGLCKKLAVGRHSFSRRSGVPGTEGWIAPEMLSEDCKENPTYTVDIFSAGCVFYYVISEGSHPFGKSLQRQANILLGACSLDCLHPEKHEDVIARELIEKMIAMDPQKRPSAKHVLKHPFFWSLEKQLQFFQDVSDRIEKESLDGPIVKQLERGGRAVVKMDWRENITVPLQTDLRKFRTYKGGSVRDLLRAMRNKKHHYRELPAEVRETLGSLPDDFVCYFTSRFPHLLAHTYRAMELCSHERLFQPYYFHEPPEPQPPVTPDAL
Chain of Ribosomal protein S6 kinase alpha-3 (P51812 whole entry): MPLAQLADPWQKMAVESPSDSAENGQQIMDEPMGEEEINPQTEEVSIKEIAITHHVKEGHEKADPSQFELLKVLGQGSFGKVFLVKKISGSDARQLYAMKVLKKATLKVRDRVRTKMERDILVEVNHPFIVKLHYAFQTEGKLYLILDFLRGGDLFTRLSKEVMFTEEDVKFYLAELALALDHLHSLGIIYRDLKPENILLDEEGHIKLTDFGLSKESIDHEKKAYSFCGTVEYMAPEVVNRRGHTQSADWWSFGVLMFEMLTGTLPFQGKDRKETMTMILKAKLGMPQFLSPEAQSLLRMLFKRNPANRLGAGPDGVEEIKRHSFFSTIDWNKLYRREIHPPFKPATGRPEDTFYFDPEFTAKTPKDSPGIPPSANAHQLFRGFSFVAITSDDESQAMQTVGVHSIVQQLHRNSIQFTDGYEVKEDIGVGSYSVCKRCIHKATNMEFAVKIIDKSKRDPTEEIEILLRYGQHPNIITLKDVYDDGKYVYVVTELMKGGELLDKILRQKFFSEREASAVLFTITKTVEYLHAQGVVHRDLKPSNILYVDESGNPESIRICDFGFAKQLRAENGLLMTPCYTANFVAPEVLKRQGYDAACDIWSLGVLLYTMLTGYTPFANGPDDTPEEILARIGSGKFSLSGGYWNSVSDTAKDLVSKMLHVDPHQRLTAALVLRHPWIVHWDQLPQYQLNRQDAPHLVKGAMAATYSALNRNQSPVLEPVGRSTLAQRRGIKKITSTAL

What is called Kd is the concentration at which binding is half-saturated. As for `CC(=O)c1cnc2ccc(-c3cc(Cl)c(O)c(Cl)c3)nc2c1N[C@H]1CC[C@H](CN(C)C)CC1`, the Kd in assay [1] was > 30 µM (inactive); in [2], 0.126 µM (active); in [3], 0.005 µM (active); in [4], > 30 µM (inactive); in [5] it was > 30 µM (inactive); in [6], > 30 µM (inactive).

For the compound `Cc1nc2cc(-c3nn(C(C)C)c4ncnc(N)c34)ccc2o1`, the Kd in assay [1], in [2], in [7], in assay [3], in [4] and in [8] was > 30 µM (inactive) throughout. Besides, the Kd in [9] was 2.01 µM (active); in assay [6] it was > 30 µM (inactive).

As for `COc1cc(Nc2ncc3c(n2)-c2ccc(Cl)cc2C(c2c(F)cccc2OC)=NC3)ccc1C(=O)O` [ALISERTIB], the Kd in [1], in assay [2], in assay [7], in assay [3], in [4] and in assay [5] was > 30 µM (inactive) each time. For the same compound, the Kd in assay [9] and in assay [6] was > 30 µM (inactive) throughout.

Regarding `O=C(Nc1c[nH]nc1-c1nc2cc(CN3CCOCC3)ccc2[nH]1)NC1CC1` [AT-9283], the Kd in assay [1] is > 30 µM (inactive); in assay [2], > 30 µM (inactive); in assay [7], > 30 µM (inactive); in [4], > 30 µM (inactive); in [5] it was 0.003 µM (active); in [9], 1.28 µM (active). Besides, the Kd in assay [6] was > 30 µM (inactive).

Regarding `CNC(=O)c1ccccc1Sc1ccc2c(/C=C/c3ccccn3)n[nH]c2c1` [AXITINIB], the Kd in assay [1], in assay [4], in [5] and in assay [6] was > 30 µM (inactive) each time.

Turning to `COc1cc2ncnc(Oc3cccc(NC(=O)Nc4cc(C(C)(C)C(F)(F)F)on4)c3)c2cc1OC` [CEP-32496], the Kd in assay [1], in [2], in [7], in assay [3], in assay [4] and in assay [8] was > 30 µM (inactive) throughout. Further, the Kd in assay [9] and in assay [6] was > 30 µM (inactive) each time.

`CC(C)(C)c1nc(-c2cccc(NS(=O)(=O)c3c(F)cccc3F)c2F)c(-c2ccnc(N)n2)s1` [DABRAFENIB]: the Kd in assay [1] is > 30 µM (inactive); in assay [2] it was > 30 µM (inactive); in [7], 1.45 µM (active); in assay [3] it was > 30 µM (inactive); in assay [4], > 30 µM (inactive); in assay [5], > 30 µM (inactive). Further, the Kd in assay [9] and in assay [6] was > 30 µM (inactive) throughout.

Regarding `Cn1cc(C2=C(c3cn(C4CCN(Cc5ccccn5)CC4)c4ccccc34)C(=O)NC2=O)c2ccccc21` [ENZASTAURIN], the Kd in assay [1], in [4], in assay [5] and in assay [6] was > 30 µM (inactive) in each case.

Consider `Cc1nc2cc(-n3ncc(C(=O)c4cc5ccccc5[nH]4)c3N)ccc2[nH]1` [FGFR INHIBITOR DEBIO 1347], for which the Kd in [1], in assay [2], in assay [7], in assay [3], in [4] and in [8] was > 30 µM (inactive) each time. Besides, the Kd in [9] is > 30 µM (inactive).

With `C[C@@H](Oc1cc(-n2cnc3ccc(CN4CCN(C)CC4)cc32)sc1C(N)=O)c1ccccc1C(F)(F)F` [GSK-461364], the Kd in assay [1], in assay [4] and in assay [6] was > 30 µM (inactive) each time.

In the case of `CCn1cc(-c2ccnc3[nH]c(-c4cccc(CN(C)C)c4)cc23)c(-c2ccc(NC(=O)N(C)C)cc2)n1` [GSK-1070916], the Kd in [1], in assay [2], in [7], in [4], in assay [9] and in assay [6] was > 30 µM (inactive) each time.

Turning to `Cc1[nH]c(/C=C2\C(=O)Nc3ccccc32)c(C)c1CCC(=O)O` [ORANTINIB], the Kd in [1] was > 30 µM (inactive); in assay [3], 2.09 µM (active); in assay [4], > 30 µM (inactive); in assay [6], > 30 µM (inactive).

Consider `NC(=O)c1c(OCc2c(F)cc(Br)cc2F)nsc1NC(=O)NCCCCN1CCCC1` [OSI-632], for which the Kd in [1], in assay [2], in [7], in assay [3], in assay [4] and in assay [5] was > 30 µM (inactive) in each case. Besides, the Kd in assay [9] and in assay [6] was > 30 µM (inactive) in each case.

Regarding `CC(=O)NCC(=O)N1[C@@H]2CC[C@H]1c1ccc(Nc3ncc(C(F)(F)F)c(NC4CCC4)n3)cc12` [PF-03814735], the Kd was > 30 µM (inactive) in [1]; 2.19 µM (active) in assay [2]; 3.64 µM (active) in [7]; 1.76 µM (active) in [3]; > 30 µM (inactive) in assay [4]; > 30 µM (inactive) in [5]. Further, in [6], the Kd is > 30 µM (inactive).

In the case of `O=C(NOCCO)c1cc(CN2OCCCC2=O)c(F)c(F)c1Nc1ccc(I)cc1F` [RO-4987655], the Kd in [1], in assay [4], in [5] and in assay [6] was > 30 µM (inactive) each time.

For the compound `N#CC[C@H](C1CCCC1)n1cc(-c2ncnc3[nH]ccc23)cn1` [RUXOLITINIB], the Kd is > 30 µM (inactive) in assay [1], > 30 µM (inactive) in assay [4], > 30 µM (inactive) in assay [5] and 3.67 µM in [6].

The record behind these values is ChEMBL document CHEMBL3991601, “The target landscape of clinical kinase drugs” (Science, 2017).
